Assay results published in patent US7745455B2 (priority 2005, dated 2010).
Values joined by “and” are separate entries in the source; they are usually repeats but may differ in a detail not shown here. Identical values can stand only once.

Legend:
[1] = Plasmatic 3TC levels in patients with or without ddC-boosted 3TC treatment; assay type: in vivo, human; settings: individual HIV patients, one line per patient and date, 3TC with low dose ddC or without ddC
Description: It should be noted that for the plasma levels, the peak (post-dose) was at about 2 hours of the drug administration: this is not the case with intracellular triphosphate concentrations where the peaks might occur later than 2 hours post drug administration.

HIV [2] = assay type: in vivo; settings: individual patients by date; 3TC lines = before ddC was started
CD4+ = CD4+ count in treated patients (immunological data); assay type: in vivo, human; settings: individual patients by date; 3TC lines = before ddC was started
ddC phosphorylation = settings: in vitro, identical concentration ratios of 10 to 100 μM; cited from earlier work
3TC-TP formation = settings: in vitro; cited from earlier work
[3] = human, in vivo; cited from earlier work
HIV [4] = settings: 300 mg instead of 150 mg; cited from earlier work
HIV [5] = settings: cited from earlier work
3TC phosphorylation = settings: in vitro, at extremely high ddC concentrations (10 to 100 higher than those of 3TC); cited from earlier work
[6] = human, in vivo; cited from earlier work; remark: listed apart in the source

Nc1ccn([C@@H]2CS[C@H](CO)O2)c(=O)n1 [3TC, 2′ deoxy-3′-thiacytidine]
concentration at 2 h ([1]; human, in vivo, 3TC plasma levels 2 h post dose): 700 ng/mL
3TC plasma levels 2 h post dose [1]: 779 ng/ml and 1 057 ng/ml
3TC plasma levels Pre-dose [1]: 143 ng/ml and 35 ng/ml (2×)
Viral load (HIV [2]): 291 392 ^ and 1 344 ^ and 124 and 445
CD4+ (CD4+): 180 and 760 and 220 and 770
inhibition of ddC phosphorylation (ddC phosphorylation): inhibited ddC phosphorylation in a concentration-dependent manner
extracellular concentration at which 3TC-TP formation is saturated (3TC-TP formation): 10 µM
3TC-TP levels reported in the literature [3]: 1-5 μmol/10^6 PBMC
effect of increased dose on 3TC-TP levels (HIV [4]): did not significantly increased the 3TC-TP levels

Nc1ccn([C@H]2CC[C@@H](CO)O2)c(=O)n1 [ddC, 2′-3′-dideoxycytidine]
concentration needed for antiretroviral activity (in vivo toxicity index) (HIV [5]): 0.1 µM
toxic concentration (in vivo toxicity index) (HIV [5]): 0.2 µM
inhibition of 3TC phosphorylation (3TC phosphorylation): did inhibit in vitro 3TC phosphorylation
plasma levels [6]: 500 to 1500 nM
